Literature values in US20140004186A1, “COMPOSITIONS COMPRISING A FATTY ACID OIL MIXTURE COMPRISING EPA AND DHA IN FREE ACID FORM, A SURFACTANT, AND A STATIN” (Pronova Biopharma Norge AS, priority 2010, published 2014).

Experiments:
[1] = Table 7, other surfactants

## CC(O)CO.CCCCCCCCCCCCCCCCCC(=O)O [Propylene glycol monostearate]
[1]
  HBL Value: 3.4

## CC[C@H](C)C(=O)O[C@H]1C[C@H](O)C=C2C=C[C@H](C)[C@H](CC[C@@H](O)C[C@@H](O)CC(=O)O)[C@H]21 [pravastatin]
other
  oral bioavailability: 18%

## CC(C)c1nc(N(C)S(C)(=O)=O)nc(-c2ccc(F)cc2)c1/C=C/[C@@H](O)C[C@@H](O)CC(=O)O [rosuvastatin]
other
  oral bioavailability: 20%
